Converted amounts (≈) assume the structure as drawn.
Each molecule was assayed on Botrytis cinerea (assay: Fungicidal activity against Botryotinia fuckeliana inoculated on compound pre-treated one-leaf stage cucumber seedlings assessed as prevention of leaf lesions measured 3 days after inoculation).
Format: functional

SMILES	MIC [µg/mL]
O=[N+]([O-])c1cc(C(F)(F)F)c(Cl)c([N+](=O)[O-])c1Nc1nc(C(F)(F)F)c(Cl)cc1Cl	< 16
N#Cc1cc([N+](=O)[O-])c(Nc2ncc(C(F)(F)F)cc2Cl)c([N+](=O)[O-])c1Cl	> 500
O=[N+]([O-])c1cc(C(F)(F)F)c(Cl)c([N+](=O)[O-])c1Nc1nc(Cl)c(C(F)(F)F)cc1Cl	< 16
CCN(CC)S(=O)(=O)c1cc([N+](=O)[O-])c(Nc2ncc(C(F)(F)F)cc2Cl)c([N+](=O)[O-])c1Cl	> 500
O=[N+]([O-])c1cc(C(F)(F)F)c(Nc2ncc(C(F)(F)F)cc2Cl)c([N+](=O)[O-])c1Cl	< 16
O=[N+]([O-])c1cc(C(F)(F)F)c(Cl)c([N+](=O)[O-])c1Nc1ncc(Br)cc1C(F)(F)F	63 (≈ 124 µM)
O=[N+]([O-])c1cc(C(F)(F)F)c(Oc2ccc(C(F)(F)F)cc2Cl)c([N+](=O)[O-])c1Nc1ncc(C(F)(F)F)cc1Cl	> 500
Nc1c(Cl)c(C(F)(F)F)cc([N+](=O)[O-])c1Nc1ncc(C(F)(F)F)cc1Cl	> 500
O=[N+]([O-])c1cc(C(F)(F)F)c(Oc2cccc(C(F)(F)F)c2)c([N+](=O)[O-])c1Nc1ncc(C(F)(F)F)cc1Cl	> 500
O=[N+]([O-])c1cc(C(F)(F)F)c(Cl)c([N+](=O)[O-])c1Nc1ncc(C(F)(F)F)cc1C(F)(F)F	< 16
O=[N+]([O-])c1cc(C(F)(F)F)c(Cl)c([N+](=O)[O-])c1Nc1ncc(Cl)cc1Br	> 500
O=[N+]([O-])c1c(Cl)cc(Nc2ncc(C(F)(F)F)cc2Cl)c([N+](=O)[O-])c1Cl	> 500
O=[N+]([O-])c1c(Cl)c(C(F)(F)F)c(Cl)c([N+](=O)[O-])c1Nc1ncc(C(F)(F)F)cc1Cl	250 (≈ 500 µM)
O=[N+]([O-])c1cc(C(F)(F)F)c(O)c([N+](=O)[O-])c1Nc1ncc(C(F)(F)F)cc1Cl	> 500
COc1c(C(F)(F)F)cc([N+](=O)[O-])c(Nc2ncc(C(F)(F)F)cc2Cl)c1[N+](=O)[O-]	> 500
O=[N+]([O-])c1cc(C(F)(F)F)c(Cl)c([N+](=O)[O-])c1Nc1nc(F)c(C(F)(F)F)cc1Cl	< 16
Cc1cc([N+](=O)[O-])c(Nc2ncc(C(F)(F)F)cc2Cl)c([N+](=O)[O-])c1Cl	> 500
CC(C)COc1c(C(F)(F)F)cc([N+](=O)[O-])c(Nc2ncc(C(F)(F)F)cc2Cl)c1[N+](=O)[O-]	> 500
CSc1c(C(F)(F)F)cc([N+](=O)[O-])c(Nc2ncc(C(F)(F)F)cc2Cl)c1[N+](=O)[O-]	> 500
O=[N+]([O-])c1cc(C(F)(F)F)c(Cl)c([N+](=O)[O-])c1Nc1cc(C(F)(F)F)c(Cl)cn1	16 (≈ 34.4 µM)
Nc1cc(C(F)(F)F)c(Cl)c(N)c1Nc1ncc(C(F)(F)F)cc1Cl	> 500
O=[N+]([O-])c1cc(C(F)(F)F)c(Cl)c([N+](=O)[O-])c1Nc1ncccc1C(F)(F)F	> 500

SMILES	MIC [µg/mL]
CS(=O)(=O)c1cc([N+](=O)[O-])c(Nc2ncc(C(F)(F)F)cc2Cl)c([N+](=O)[O-])c1Cl	> 500
O=[N+]([O-])c1cc(C(F)(F)F)c(Cl)c([N+](=O)[O-])c1Nc1ncc(Cl)cc1Cl	> 500
FC(F)(F)c1cnc(Nc2cc(Cl)cc(Cl)c2)c(Cl)c1	> 500
CNc1nc(Nc2c([N+](=O)[O-])cc(C(F)(F)F)c(Cl)c2[N+](=O)[O-])c(Cl)cc1C(F)(F)F	> 500
O=[N+]([O-])c1cc(C(F)(F)F)c(Cl)c([N+](=O)[O-])c1Nc1ncc(Br)cc1Br	> 500
C[S+]([O-])c1c(C(F)(F)F)cc([N+](=O)[O-])c(Nc2ncc(C(F)(F)F)cc2Cl)c1[N+](=O)[O-] (stereo unspecified)	> 500
COC(=O)c1cc([N+](=O)[O-])c(Nc2ncc(C(F)(F)F)cc2Cl)c([N+](=O)[O-])c1Cl	> 500
CCOP(=O)(Oc1c(Cl)cc(Nc2ncc(C(F)(F)F)cc2Cl)cc1Cl)SC(C)CC (stereo unspecified)	> 500
O=[N+]([O-])c1cc(C(F)(F)F)c(OCC(F)(F)C(F)F)c([N+](=O)[O-])c1Nc1ncc(C(F)(F)F)cc1Cl	> 500
CCCCOc1c(C(F)(F)F)cc([N+](=O)[O-])c(Nc2ncc(C(F)(F)F)cc2Cl)c1[N+](=O)[O-]	> 500
O=C(O)c1cnc(Nc2c([N+](=O)[O-])cc(C(F)(F)F)c(Cl)c2[N+](=O)[O-])c(Cl)c1	> 500
Oc1c(Cl)cc(Nc2ncc(C(F)(F)F)cc2Cl)cc1Cl	> 500
Cc1c(Cl)c([N+](=O)[O-])c(Nc2ncc(C(F)(F)F)cc2Cl)c([N+](=O)[O-])c1Cl	> 500
O=[N+]([O-])c1cc(C(F)(F)F)c(OCCCl)c([N+](=O)[O-])c1Nc1ncc(C(F)(F)F)cc1Cl	> 500
CCCSP(=O)(OCC)Oc1c(Cl)cc(Nc2ncc(C(F)(F)F)cc2Cl)cc1Cl (stereo unspecified)	> 500
Fc1c(Cl)cc(Nc2ncc(C(F)(F)F)cc2Cl)c(F)c1Cl	> 500
O=[N+]([O-])c1cc(C(F)(F)F)c(I)c([N+](=O)[O-])c1Nc1ncc(C(F)(F)F)cc1Cl	> 500
CCCOc1c(C(F)(F)F)cc([N+](=O)[O-])c(Nc2ncc(C(F)(F)F)cc2Cl)c1[N+](=O)[O-]	> 500
O=[N+]([O-])c1cc(C(F)(F)F)c(Cl)c([N+](=O)[O-])c1Nc1ncc(C(F)(F)F)cc1Cl [FLUAZINAM]	< 16
O=[N+]([O-])c1cc(C(F)(F)F)c(Cl)c([N+](=O)[O-])c1Nc1ccc(C(F)(F)F)cn1	> 500
O=[N+]([O-])c1cc(C(F)(F)F)c(F)c([N+](=O)[O-])c1Nc1ncc(C(F)(F)F)cc1Cl	> 500
CCOc1c(C(F)(F)F)cc([N+](=O)[O-])c(Nc2ncc(C(F)(F)F)cc2Cl)c1[N+](=O)[O-]	> 500

SMILES	MIC [µg/mL]
O=[N+]([O-])c1cc(C(F)(F)F)cc([N+](=O)[O-])c1Nc1ncc(C(F)(F)F)cc1Cl	> 500
O=[N+]([O-])c1cc(C(F)(F)F)c(Oc2ccc(C(F)(F)F)cc2)c([N+](=O)[O-])c1Nc1ncc(C(F)(F)F)cc1Cl	> 500
N#CSc1c(C(F)(F)F)cc([N+](=O)[O-])c(Nc2ncc(C(F)(F)F)cc2Cl)c1[N+](=O)[O-]	> 500
CCOC(=O)c1cnc(Nc2c([N+](=O)[O-])cc(C(F)(F)F)c(Cl)c2[N+](=O)[O-])c(Cl)c1	> 500
N#Cc1cnc(Nc2c([N+](=O)[O-])cc(C(F)(F)F)c(Cl)c2[N+](=O)[O-])c(Cl)c1	63 (≈ 149 µM)
O=[N+]([O-])c1cc(C(F)(F)F)c(OCC(F)(F)F)c([N+](=O)[O-])c1Nc1ncc(C(F)(F)F)cc1Cl	> 500
Cc1c(Cl)cnc(Nc2c([N+](=O)[O-])cc(C(F)(F)F)c(Cl)c2[N+](=O)[O-])c1Cl	> 500
CC(C)Oc1c(C(F)(F)F)cc([N+](=O)[O-])c(Nc2ncc(C(F)(F)F)cc2Cl)c1[N+](=O)[O-]	> 500
O=[N+]([O-])c1cc(C(F)(F)F)c(Br)c([N+](=O)[O-])c1Nc1ncc(C(F)(F)F)cc1Cl	< 16
CN(C)c1nc(Nc2c([N+](=O)[O-])cc(C(F)(F)F)c(Cl)c2[N+](=O)[O-])c(Cl)cc1C(F)(F)F	> 500
O=[N+]([O-])c1cc(C(F)(F)F)c(Cl)c([N+](=O)[O-])c1Nc1ncc(Br)cc1Cl	> 500
O=[N+]([O-])c1cc(C(F)(F)F)c(Cl)cc1Nc1ncc(C(F)(F)F)cc1Cl	> 500
O=[N+]([O-])c1c(Cl)cc(Cl)c([N+](=O)[O-])c1Nc1ncc(C(F)(F)F)cc1Cl	> 500
COC(=O)c1cnc(Nc2c([N+](=O)[O-])cc(C(F)(F)F)c(Cl)c2[N+](=O)[O-])c(Cl)c1	> 500
NC(=O)c1cnc(Nc2c([N+](=O)[O-])cc(C(F)(F)F)c(Cl)c2[N+](=O)[O-])c(Cl)c1	> 500
N#Cc1c(Cl)c(Cl)c(Cl)c(C#N)c1Nc1ncc(C(F)(F)F)cc1Cl	> 500
N#CNc1c(C(F)(F)F)cc([N+](=O)[O-])c(Nc2ncc(C(F)(F)F)cc2Cl)c1[N+](=O)[O-]	> 500
Nc1c(C(F)(F)F)cc([N+](=O)[O-])c(Nc2ncc(C(F)(F)F)cc2Cl)c1[N+](=O)[O-]	> 500
O=[N+]([O-])c1cc(C(F)(F)F)c(Cl)c([N+](=O)[O-])c1Nc1ncc(Cl)cc1C(F)(F)F	16 (≈ 34.4 µM)
FC(F)(F)c1cnc(Nc2cc(Cl)c(Oc3ncc(C(F)(F)F)cc3Cl)c(Cl)c2)c(Cl)c1	> 500
O=[N+]([O-])c1cc(C(F)(F)F)c(Oc2ccccc2C(F)(F)F)c([N+](=O)[O-])c1Nc1ncc(C(F)(F)F)cc1Cl	> 500
O=[N+]([O-])c1cc(C(F)(F)F)c(Cl)c([N+](=O)[O-])c1Nc1ncc(C(F)(F)F)cc1Br	< 16

— ChEMBL document CHEMBL3044862, “Quantitative Structure-Activity Relationships of Fluazinam and Related Fungicidal N-Phenylpyridinamines” (1995)
